Tests used:
δ-opioid receptor [1] = target: T1, δ-opioid receptor (Mus musculus, UniProt P32300); assay: Change in δ-antagonist activity against DPDPE with time in mouse vas deferens (MVD); settings: for Ratio of IC50 Values / Kb: 173 and NTI at 20 nM, 174 and 5'-NTII at 100 nM; for Kb: read-out: Ke
T1 construct: from tissue; host or cells: vas deferens of male ddy mice
Procedure: In this experiment, ddy male mice were used. In a Magnus' tube which is filled with Krebes-Henseleit solution (NaCl […]; KCl 4.7 mM; CaCl2 2.5 mM; KH2 PO4 1.1 mM; NaHCO3 25 mM; glucose 11 mM) kept at 37° C., and into which an atmosphere consisting of 5% carbon dioxide and 95% oxygen was flown, vas deferens taken from the animals was suspended. Electric stimulation was applied through ring-shaped platinum electrodes mounted on the upper and lower portions of the tube at a frequency of 0.1 Hz and 5.0 mS duration. The contraction of the tissue was recorded on polygraph using isometric transducer.
Then 100 nM of the test compound was added. Twenty minutes later, DPDPE was begun to be added cumulatively. The ratio of IC50 values in the presence and absence of the test compound, Ke value (the molar concentration of the test compound necessary for translating the dose-effect curve to the curve of twice dose) and pA2 value were determined. The pA2 value was determined by the method of Shild et al (Shild, H. O., Br. J. Pharmac. Chamotehr., 4, 277 (1949)). That is, the logarithm of the test compound (log[test compound]) was plotted along the abscissa and the logarithm of the value obtained by subtracting 1 from the ratio of IC50 values was plotted in the presence and absence of the test compound [log(dose ratio-1)] along the ordinate. The pA2 value was determined from the value on the abscissa when the value on the ordinate of the obtained line is 0.
Using MVD, the antagonist activities of compounds 173 and 174 against DPDPE were determined. The ratio of IC50 values, Ke values and pA2 values at 15 minutes, 30 minutes and 1 hour from the addition of the test compounds were calculated. Since the concentrations of the test compounds are different, the reciprocals of Ke values were plotted in FIGS. 1 and 2.

δ-opioid receptor [2] = settings: Portoghese, J. Med. Chem. 33, 1547 (1990); cited from earlier work
[3] = tested on: delayed type hypersensitivity; assay: Delayed type hypersensitivity suppression test using mice from which adrenal glands have been removed; format: in vivo, mouse; settings: subcutaneous, totally 8 days
Description: The mechanism of immunosuppression of the compound of the present invention was examined using delayed type hypersensitivity suppression test using mice from which adrenal glands have been removed.
(§1) BALB/c mice (male, 7 weeks old) were used, and each group consisted of 4-5 mice. Spleen cells (1×10^7) obtained from a donor mouse (C57BL/6) was subcutaneously administered to sensitize the mice. On Day 7 from the sensitization, the spleen cells (5×10^6) of the donor were subcutaneously administered on the right footpad and spleen cells (5×10^6) obtained from a mouse of the same strain as the recipient mice were subcutaneously administered on the left footpad. Twenty four hours later, the thicknesses of the right and left footpads were measured with a dial thickness gage, and the difference in thicknesses of the right and left footpads before the induction of the reaction and 24 hours after the induction of the reaction was employed as the index of the degree of the reaction.
The adrenectomy was performed by cutting the back of each recipient mouse under anesthesia with ether before the sensitization and removing the adrenal gland. Sham operation was performed by cutting the back of each recipient mouse but not removing the adrenal gland.
The test compound was dissolved in 10% DMSO-water and was subcutaneously administered everyday from the day of sensitization to the day of induction of the reaction, totally 8 days. In the control group, 10% DMSO-water alone was administered in the same manner. The volume of administration was 10 ml/kg in both study groups and in the control groups.

δ-opioid receptor [4] = target: T1, δ-opioid receptor; assay: δ-opioid antagonist activity against DPDPE in mouse vas deferens (MVD); settings: 20 min
Procedure, shortened: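 Vas deferens from male ddy mice in Krebs-Henseleit at 37 °C (5% CO2/95% O2), field-stimulated at 0.1 Hz, 5.0 ms, isometric contraction recorded. IC50 dose ratio, Ke and Schild pA2 derived.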

[5] = tested on: delayed type hypersensitivity; assay: Mouse Delayed Type Hypersensitivity Reaction Suppression Test-3 (administration into cerebral ventricles); format: in vivo
Description: as §1
The test compound was dissolved in water and 5×10^-8 mol/mouse was administered into cerebral ventricles. In the control group, water alone was administered similarly. The dose was 5 μl/mouse in both the study groups and the control group.

[6] = tested on: delayed type hypersensitivity; assay: Mouse Delayed Type Hypersensitivity Reaction Suppression Test-2 (donor spleen cells, subcutaneous administration); format: in vivo; settings: C57BL/6 spleen cells; subcutaneous everyday from day of sensitization, totally 8 days; BALB/c
Description: as §1, with “cells (1×10^7 )” for “cells (1×10^7)”, “right hing leg” for “right footpad”, “same line” for “same strain”
The test compound was dissolved in 10% DMSO-water and was subcutaneously administered everyday from the day of sensitization to the day of induction of the reaction, totally 8 days. In the control group, 10% DMSO-water alone was administered in the same manner. The volume of administration was 10 ml/kg in both study groups and in the control group. Delayed Type Hypersensitivity Reaction=(thickness of right foodpad after induction-thickness of right footpad before induction)-(thickness of […] before induction) [formula]
wherein C means delayed type hypersensitivity reaction of the group to which the test compound was administered and D means the delayed type hypersensitivity reaction of the group to which vehicle was administered.

contact dermatitis = assay: Mouse Contact Dermatitis Suppression Test (DNFB); format: in vivo; settings: into cerebral ventricle 30 minutes before induction, BALB/c
Procedure: BALB/c mice (male, 13-15 weeks old) were used, and each group consisted of 4 mice. In mixed liquid of acetone: olive oil=4:[…] (DNFB) was dissolved. On Day 0 and Day 1, 0.1% DNFB (50μ) was sensitized to the clipped skin of the abdominal wall, so as to sensitize the mouse. On day 5, 0.15% DNFB (25 μl/ear) was challenged on closal side of each ear love of each mouse, so as to induce the reaction. The compound was administered into cerebral ventricle 30 minutes before the induction.
The contact dermatitis was detected in terms of the increase in the thicknesses of the ears. The thicknesses of the ears were measured before and 24 hours after the challenge by using a dial thickness gage. One ear was taken as n=1, and the increase in the thickness of the ear was used as an index for detecting the contact dermatitis. Contact Dermatitis=(thickness of the ear after challenge)-(thickness of the ear before challenge) [formula]
wherein E means the contact dermatitis of the group to which the compound was administered, and F means the contact dermatitis of the group to which the vehicle was administered.

T1 sequence (P32300 whole entry): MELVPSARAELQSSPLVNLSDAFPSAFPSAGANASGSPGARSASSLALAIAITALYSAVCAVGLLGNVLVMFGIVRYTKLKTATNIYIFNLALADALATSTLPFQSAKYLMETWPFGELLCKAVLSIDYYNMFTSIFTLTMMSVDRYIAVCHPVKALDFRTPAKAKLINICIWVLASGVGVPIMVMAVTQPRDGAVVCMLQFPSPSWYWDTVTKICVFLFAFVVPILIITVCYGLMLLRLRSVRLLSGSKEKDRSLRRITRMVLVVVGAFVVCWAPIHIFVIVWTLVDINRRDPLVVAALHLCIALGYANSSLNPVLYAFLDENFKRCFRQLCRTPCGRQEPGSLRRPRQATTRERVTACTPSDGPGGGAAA

SMILES	Ratio of IC50 Values (δ-opioid receptor [1]; 15 min)	Kb (δ-opioid receptor [1]; 15 min) [nM]	change of antagonist activity with time (in words) (δ-opioid receptor [1]; 15 min to 1 hour)	Ratio of IC50 Values (δ-opioid receptor [1]; 30 min)	Kb (δ-opioid receptor [1]; 30 min) [nM]	Ratio of IC50 Values (δ-opioid receptor [1]; 60 min)	Kb (δ-opioid receptor [1]; 60 min) [nM]	antagonist activity and selectivity to δ-opioid receptor (in words) (δ-opioid receptor [2])	% Suppression ([3]; Adrenectomy) [%]	% Suppression ([3]; Sham Operation) [%]	Ratio of IC50 Values (δ-opioid receptor [4]; DPDPE IC50 with/without 100 nM test compound)	Kb (δ-opioid receptor [4]; against DPDPE, test compound 100 nM, read-out: Ke) [nM]	% Suppression ([5]; 5×10^-8 mol/mouse into cerebral ventricles, BALB/c) [%]	suppressive effect relative to NTI (in words) ([5]; into cerebral ventricles, vs NTI)	% Suppression [6] [%]	suppression of contact dermatitis (contact dermatitis) [%]
Oc1ccc2c3c1O[C@H]1c4[nH]c5ccc(N=C=S)cc5c4C[C@@]4(O)[C@@H](C2)N(CC2CC2)CC[C@]314 [5'-NTII, reference compound]	3.28	43.9	increased with time	7.47	15.5	9.36	12	antagonist activity and selectivity to δ-opioid receptor are low								
Oc1ccc2c3c1O[C@H]1c4[nH]c5c6c(ccc5c4C[C@@]4(O)[C@@H](C2)N(CC2CC2)CC[C@]314)CCCC6 [Compound 2, 17-cyclopropylmethyl-3,14β-dihydroxy-4,5α-epoxy-6,7-didehydromorphinano[6,7-b]cyclohexeno[g]indole]									60	60	22.1	4.74	83	far stronger than NTI	60	44
